Assay results: PMC8453635, “Piperidine Azasugars Bearing Lipophilic Chains: Stereoselective Synthesis and Biological Activity as Inhibitors of Glucocerebrosidase (GCase)” (The Journal of Organic Chemistry, 2021)

Target: T1, GCase (Homo sapiens, UniProt P04062)
T1 construct: screened toward GCase in leukocytes isolated from healthy donors (controls); from tissue; host or cells: leukocytes isolated from healthy donors, disrupted by sonication
T1 sequence (P04062 40-536): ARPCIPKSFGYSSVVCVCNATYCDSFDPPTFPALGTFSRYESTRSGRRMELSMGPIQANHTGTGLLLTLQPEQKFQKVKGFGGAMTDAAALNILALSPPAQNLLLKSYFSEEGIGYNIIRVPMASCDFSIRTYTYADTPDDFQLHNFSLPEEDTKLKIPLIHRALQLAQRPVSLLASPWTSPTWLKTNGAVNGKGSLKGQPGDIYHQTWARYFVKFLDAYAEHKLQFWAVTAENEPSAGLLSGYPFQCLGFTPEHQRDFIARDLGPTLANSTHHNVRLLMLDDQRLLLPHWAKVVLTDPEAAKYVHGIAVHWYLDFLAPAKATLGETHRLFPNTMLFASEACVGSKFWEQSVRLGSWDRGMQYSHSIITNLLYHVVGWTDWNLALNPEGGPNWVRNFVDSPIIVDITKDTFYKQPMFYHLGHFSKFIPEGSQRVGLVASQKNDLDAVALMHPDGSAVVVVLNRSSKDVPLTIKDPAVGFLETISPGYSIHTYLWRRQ
Test: GCase inhibition in human leukocyte homogenates
Type: biochemical
Conditions: for GCase inhibition [%]: human leukocytes extracts incubated with azasugars (1 mM); for IC50: human leukocytes from healthy donors, substrate 4-methylumbelliferyl-β-D-glucoside 3.33 mM
Procedure: Compounds 14, 15, and 33·HCl were then tested at 1 mM for GCase inhibition in human leukocyte homogenates. The results obtained were compared with data of previously reported compounds 9, 11, and 12.[12],[16],[17]
The compounds 14, 15, and 33·HCl were screened toward GCase in leukocytes isolated from healthy donors (controls). Isolated leukocytes were disrupted by sonication, and a micro BCA protein assay kit (Sigma-Aldrich) was used to determine the total protein amount for the enzymatic assay, according to the manufacturer instructions. Enzyme activity was measured in a flat-bottomed 96-well plate. Compound solution (3 μL), 4.29 μg/μL leukocytes homogenate (7 μL), and substrate 4-methylumbelliferyl-β-D-glucoside (3.33 mM, 20 μL, Sigma-Aldrich) in citrate/phosphate buffer (0.1:0.2, M/M, pH 5.8) containing sodium taurocholate (0.3%) and Triton X-100 (0.15%) at 37 °C were incubated for 1 h. The reaction was stopped by addition of sodium carbonate (200 μL; 0.5 M, pH 10.7) containing Triton X-100 (0.0025%), and the fluorescence of 4-methylumbelliferone released by β-glucosidase activity was measured in SpectraMax M2 microplate reader (λex = 365 nm, λem = 435 nm; Molecular Devices). Percentage GCase inhibition is given with respect to the control (without compound). Data are mean SD (n = 3).
The IC50 values of inhibitors against GCase were determined by measuring the initial hydrolysis rate with 4-methylumbelliferyl-β-D-glucoside (3.33 mM). Data obtained were fitted by using the appropriate Equation (for more details, see the Supporting Information section).
Percentage of GCase inhibition of compounds 14, 15 and 33.HCl towards human GCase Percentage of GCase inhibition of the whole collection of compounds in human leukocytes extracts incubated with iminosugars at 1 mM concentration.
IC50 determination: The IC50 values of inhibitors against GCase were determined by measuring the initial hydrolysis rate with 4-methylumbelliferyl-β-D-glucoside (3.33 mM). Data obtained were fitted to the following equation using the Origin Microcal program. where Vi/Vo, represent the ratio between the activity measured in the presence of the inhibitor (Vi) and the activity of the control without the inhibitor (V0), “x” the inhibitor concentration, Max and Min, the maximal and minimal enzymatic activity observed, respectively.
(also on this page, place not known: Min IC x MinMax Vo Vi slope + […] […] […] […] […] […]+ −= 50 1 (V i) activity nmoli/mg/h)
(1 picture or pasted object on this page, not shown here)

Row | SMILES | GCase inhibition [%] | IC50 | GCase inhibitory activity relative to monoalkylated counterpart 12 (comparison of IC50 values)
1 | CCCCCCCC[C@@H]1[C@@H](O)[C@H](O)[C@H](O)CN1C(CCCCCCC)CCCCCCC.Cl [compound 33·HCl, (2R,3R,4R,5R)-2-Octyl-1-(pentadecan-8-yl)-piperidine-3,4,5-triol Hydrochloride] | 75% | 130 ± 15 µM | 
2 | CCCCCCCC[C@H]1[C@@H](O)[C@H](O)[C@H](O)CN1CCCCCCCC [compound 14, (2S,3R,4R,5R)-1,2-Dioctylpiperidine-3,4,5-triol] | 100% | 100 ± 9 µM | 
3 | CCCCCCCC[C@@H]1[C@@H](O)[C@H](O)[C@H](O)CN1CCCCCCCC [compound 15, (2R,3R,4R,5R)-1,2-Dioctylpiperidine-3,4,5-triol] | 100% | 15 ± 4 µM | twofold more active
